The values below come from patent publication US20220048987A1, “METHOD OF TREATMENT TO PREVENT OR REVERSE AGE-ASSOCIATED INFLAMMATION, COGNITIVE DECLINE, AND NEURODEGENERATION” (The Board of Trustees of the Leland Stanford Junior …, priority 2020, published 2022).

One test deals with aged mice. Briefly: Electrophysiology: hippocampal CA1 long-term potentiation (LTP). The test is classed as in vivo, mouse. To be noted: aged (20-22 mo) mice, 2.5 mg/kg/d, 6 weeks; 2.5 mg/kg/day. As to the method: To measure the cellular mechanism of learning and memory, a modified protocol previously described (Latif-Hernandez et al., Frontiers in cellular neuroscience 10, 252, (2016), incorporated herein by reference) was used. Mice were euthanized by cervical dislocation, and hippocampus (HC) was rapidly dissected out into ice-cold (4° C.) artificial cerebrospinal fluid (ACSF), saturated with carbogen (95% O2/5% CO2). ACSF consisted of (in mM): 124 NaCl, 4.9 KCl, 24.6 NaHCO3, 1.20 KH2PO4, 2.0 CaCl2, 2.0 MgSO4, 10.0 glucose, pH 7.4. […] Slices were carefully positioned on a R6501A multi-electrode array (Alpha MED Scientific Inc., Osaka, Japan) with electrodes arrayed in an 8×2 matrix with interpolar distance of 150 μm; each matrix measured 50 μm×50 μm. After 30 min incubation, the field excitatory postsynaptic potentials (fEPSPs) in CA1 were recorded by stimulating downstream electrodes in the CA1 and CA3 regions along the Schaffer collateral pathway. […] The time course of the fEPSP was calculated as the descending slope function for all experiments. […] The mean baseline fEPSP value was calculated and percentage change from baseline after the TBS was analyzed for LTP.

In test [1] the test system is human monocyte-derived macrophages (human MDMs). Nature of the test: Real-time oxygen consumption rate (OCR) and ECAR (Seahorse) in human MDMs. The test is classed as cell-based. To be noted: human MDMs, dose response, 20 h. As to the method: Cells were plated at 1.8×10^6 cells per well in a Seahorse XF24 Cell Culture Microplate (Agilent). Cells were then treated with indicated inhibitors or agonists in each experiment for 20 h. Cells were washed twice with Agilent Seahorse XF Media (Agilent) supplemented with 1 mM pyruvate, 2 mM L-glutamine, and 10 mM D-glucose; a final volume of 525 μl was placed in each well. Cells were then incubated in a 0% CO2 chamber at 37° C. for 1 h before being placed into a Seahorse XFe24 Analyzer (Agilent). For OCR and ECAR mitostress test experiments, cells were treated with 1 μM oligomycin, 2 μM carbonyl cyanide p-trifluoromethoxyphenylhydrazone (FCCP), and 0.5 μM rotenone/antimycin (indicated by three black arrows in each seahorse trace). For mitoFlex Fuel test experiments, cells were treated with UK5099 (200 μM) and BPTES (200 μM)/Etomoxir (80 μM). A total of three OCR and pH measurements were taken after each compound was administered. All Seahorse experiments were repeated at least three times unless otherwise indicated. All OCR and ECAR data were normalized to cell number per well using CyQUANT (ThermoFisher Scientific, Waltham, Mass., USA).
Peripheral blood mononuclear cells from de-identified healthy donors (young<35 years old, aged>65 years old) were obtained from the Stanford Blood Center and transferred to 50 ml conical tubes. Samples were diluted with 20 ml PBS and layered onto 10 ml of Ficoll-Paque (GE Healthcare) using a Pasteur pipette. Tubes were centrifuged at 1,500 r.p.m. for 25 min without brake at 20° C. The mononuclear cell layer was transferred to a new 50 ml conical tube, resuspended in 50 ml 1×PBS and centrifuged at 1500 r.p.m. for 10 min, repeated twice. After centrifugation, monocytes were isolated using a Monocyte Isolation Kit, human (MACS; Miltenyi Biotech). Cells were then plated 10×10^6 per 10-cm petri dish and differentiated for 7 days in Roswell Park Memorial Institute (RPMI) media supplemented with 10% FBS, 1% penicillin-streptomycin, and 50 ng ml^−1 M-CSF (Peprotech).

“Also recorded” adds a separate entry of the source.

Regarding `COc1ccc2cc(OCC3(C(=O)O)CN(C(=O)c4ccc(F)cc4)C3)ccc2c1` [PF-04418948], the “LTP in CA1 hippocampal region of aged mice” value in the test on aged mice is listed as “restored hippocampal memory function as well as LTP to youthful levels; also recorded: rescued”. For the same compound, in test [1], the “ECAR (extracellular acidification rate, glycolysis)” value is recorded as “increased” and the “basal OCR (oxygen consumption)” value is reported as “increased”.
